# Test results taken from patent US20190110476A1, “NOVEL ISOTHIAZOLAMIDES, PROCESSES FOR THEIR PREPARATION AND THEIR USE AS FUNGICIDES” (priority 2014, published 2019).
# Marks after values point to notes of the source that are not given here.
# Test: Measurement of LogP values by HPLC on reversed phase columns (EEC directive 79/831 Annex V.A8)
# Type: physicochemical
# Conditions: not given
# How it was run: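 LogP measured by reversed-phase HPLC following EEC directive 79/831 Annex V.A8. Lambda-max taken from UV spectra at 200–400 nm at chromatographic peak maxima; diastereoisomer values listed separately.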
LogP,LogP [a],LogP [b],Structure (SMILES)
0.88[a],,,"Nc1nsc(C(=O)NCC2CCCC2O)c1Cl (single isomer, unassigned) [I-773]"
,2.18^[a],,O=C(NCC1CCCOC1)c1snc(Cl)c1Cl (centres unmarked) [E-II-005]
,2.88,2.82,Nc1nsc(C(=O)N2CCc3c(Cl)ccc(Cl)c3C2)c1Cl [II-022]
,1.43^[a],,CS(C)=Nc1nsc(C(=O)NCc2cc(F)c(F)cc2F)c1F [II-072]
,2.72,2.69,CC(NC(=O)c1snc(Cl)c1Cl)C1CCCO1 (centres unmarked) [E-II-032]
,2.49^[a],,O=C(NCC1CCCCC1)c1snc(N=S2CCOCC2)c1Cl [II-090]
3.50[a],,,CC(c1ccc(Cl)cc1Cl)N(C(=O)c1snc(N)c1Cl)C1CC1 (centres unmarked) [I-953]
,4.14,4.09,COc1ccc(CNc2nsc(C(=O)N3c4ccccc4CCC3C)c2Cl)cc1 (centres unmarked) [II-100]
3.23[a],,,COc1ccc(CNc2nsc(C(=O)NCc3cn(C4CCCC4)nc3C)c2Cl)cc1 [I-1339]
,3.75^[a],,O=C(O)c1snc(N(Cc2ccccc2)Cc2ccccc2)c1Cl [E-VIII-005]
1.69[a],,,Nc1cc(C(=O)NCc2ccccc2Cl)sn1 [I-282]
2.83[a],,,O=CCCNc1nsc(C(=O)NCC2CCCCC2)c1Cl [I-715]
3.59[a],,,COc1ccc(CNc2nsc(C(=O)NCc3cc(OC)ccc3OC)c2Cl)cc1 [I-1230]
2.50[a],,,COc1c(N)nsc1C(=O)NCC1CCCCCC1 [I-735]
4.35[a],,,COc1ccc(CNc2nsc(C(=O)NC3CCC4CCCC43)c2Cl)cc1 (centres unmarked) [I-1346]
1.81[a],,,Nc1nsc(C(=O)NCc2c(F)cccc2F)c1Cl [I-128]
0.76[a],,,Cc1nn(C)cc1CNC(=O)c1snc(N)c1Cl [I-034]
3.61[a],,,COc1ccc(CNc2nsc(C(=O)NC(C)c3ccsc3)c2Cl)cc1 (centres unmarked) [I-1261]
1.64[a],,,N#Cc1ccc(CNC(=O)c2snc(N)c2Cl)c(F)c1 [I-202]
4.23[a],,,COc1ccc(CNc2nsc(C(=O)NC(C)c3ccc(C(F)(F)F)cc3)c2Cl)cc1 (centres unmarked) [I-1276]
6.27[a],,,O=C(NCC1CCCCC1)c1snc(N(Cc2ccccc2)Cc2ccccc2)c1-c1ccc(F)cc1 [I-318]
2.94[a],,,Nc1nsc(C(=O)NCc2ccc(Oc3ccccc3)cc2)c1Cl [I-227]

LogP,LogP [a],LogP [b],Structure (SMILES)
5.14[a],,,COc1ccc(CNc2nsc(C(=O)N(Cc3ccc(F)cc3F)C(=O)c3ccc(C(F)(F)F)cc3)c2Cl)cc1 [I-1556]
4.56[a],,,COc1ccc(CNc2nsc(C(=O)N[C@H](C)C3CCCCC3)c2Cl)cc1 [I-070]
2.86[a],,,Nc1nsc(C(=O)NCC2CCCCCC2)c1Cl [I-054]
3.08[a],,,CC(C)N(Cc1ccc(Cl)cc1Cl)C(=O)c1cc(N)ns1 [I-937]
3.29[a],,,CC(c1cccc(C(F)(F)F)c1)N(C(=O)c1snc(N)c1Cl)C1CC1 (centres unmarked) [I-956]
2.74[a],,,Nc1nsc(C(=S)NCc2ccc(F)cc2F)c1Cl [I-1016]
2.48[a],,,Nc1nsc(C(=O)N(c2cc(F)cc(F)c2)C2CC2)c1Cl [I-959]
1.49[a],,,Cc1c(N)nsc1C(=O)NCc1c(F)ccc(F)c1F [I-596]
3.15[a],,,COc1ccc(CNc2nsc(C(=O)NC3CCC3)c2Cl)cc1 [I-1195]
2.54[a],,,Nc1nsc(C(=O)Nc2cc(F)cc(F)c2)c1Cl [I-866]
,2.21^[a],,COc1ccc(CNc2nsc(C(=O)O)c2Cl)cc1 [E-VIII-002]
2.29[a],,,COC(=O)Nc1nsc(C(=O)NCc2ccc(Cl)cc2)c1Cl [I-579]
4.77[a],,,COc1ccc(CNc2nsc(C(=O)N(Cc3cc(C)ccc3C)C3CC3)c2Cl)cc1 [I-876]
3.29[a],,,Cc1ccc(C2(C)CC2)c(CNC(=O)c2snc(N)c2Cl)c1 [I-414]
2.03[a],,,CCOC(=O)c1cccc(CNC(=O)c2snc(N)c2Cl)c1 [I-1307]
4.67[a],,,COc1ccc(CNc2nsc(C(=O)N(C3CCCCC3)C3CC3)c2Cl)cc1 [I-893]
4.20[a],,,COc1ccc(CNc2nsc(C(=O)NCC3CCCCC3)c2Cl)cc1 [I-098]
4.20[a],,,COc1ccc(CNc2nsc(C(=O)NCc3cccc(Cl)c3C)c2Cl)cc1 [I-1243]
3.25[a],,,COc1ccc(CNc2nsc(C(=O)NC(C)c3ccc(OC)c(OC)c3)c2Cl)cc1 (centres unmarked) [I-1348]
2.60[a],,,Cc1cc(Cl)ccc1CNC(=O)c1snc(N)c1Cl [I-389]
,4.49^[a],,O=C(O)c1snc(N(Cc2ccccc2)Cc2ccccc2)c1-c1ccc(F)cc1 [E-VIII-010]
1.03[a],,,COc1ccc(CNC(=O)c2snc(N)c2Cl)cc1O [I-1568]

LogP,LogP [a],LogP [b],Structure (SMILES)
1.93[a],,,CCOc1c(N)nsc1C(=O)NCc1ccccc1F [I-730]
4.94[a],,,COc1ccc(CNc2nsc(C(=O)N(Cc3c(C)cc(C)cc3C)C3CC3)c2Cl)cc1 [I-870]
,1.02^[a],,O=C(Nc1nsc(C(=O)O)c1Cl)c1ccc(F)cc1 [E-VIII-007]
3.62[a],,,CC1CC(C)(C)c2cccc(NC(=O)c3snc(N)c3Cl)c21 (centres unmarked) [I-885]
3.76[a],,,COc1ccc(CNc2nsc(C(=O)Nc3ccc(F)cc3)c2Cl)cc1 [I-858]
0.92[a],,,Nc1nsc(C(=O)NCc2cncc(F)c2)c1Cl [I-037]
,6.11^[a],,CCOC(=O)c1snc(N(Cc2ccccc2)Cc2ccccc2)c1-c1ccc(F)cc1 [E-VII-031]
2.12[a],,,Nc1nsc(C(=O)NCc2ccccc2Cl)c1Cl [I-009]
0.72[a],,,Nc1nsc(C(=O)NCC2CCC(O)C2)c1Cl (centres unmarked) [I-658]
4.11[a],,,C[C@H](NC(=O)c1snc(NCC(F)(F)F)c1Cl)C1CCCCC1 [I-427]
2.57[a],,,Nc1nsc(C(=O)N(Cc2cc(F)ccc2F)C2CC2)c1Cl [I-362]
3.99[a],,,C#CC1(NC(=O)c2snc(NCc3ccc(OC)cc3)c2Cl)CCCCC1 [I-1209]
1.52[a],,,Nc1cc(C(=O)NCCc2ccccc2)sn1 [I-854]
2.75[a],,,CC1CCC(CNC(=O)c2snc(N)c2Cl)CC1 (centres unmarked) [I-738]
4.04[a],,,COc1ccc(CNc2nsc(C(=O)NC3CCc4ccccc43)c2Cl)cc1 (centres unmarked) [I-111]
2.37[a],,,CC1CCCC(NC(=O)c2snc(N)c2Cl)C1 (centres unmarked) [I-1563]
4.74[a],,,CCc1ccccc1CN(C(=O)c1snc(NCc2ccc(OC)cc2)c1Cl)C1CC1 [I-890]
2.80[a],,,Cc1ccc(F)c(CN(C(=O)c2snc(N)c2Cl)C2CC2)c1 [I-363]
5.65[a],,,O=C(NC1CCCC2CCCCC21)c1snc(NCc2ccccc2)c1NCc1ccccc1 (centres unmarked) [I-047]
,4.07,3.98,O=C(NC1CCCc2ccccc21)c1snc(Cl)c1Cl (centres unmarked) [E-II-021]

# Same assay, conditions: HPLC LC-UV, acidic range, 0.1% formic acid in water and acetonitrile as eluent
row,Structure (SMILES),chromatographic logP
1,"O=C(NCC1CCCCC1)c1snc(N=C(c2ccccc2)c2ccccc2)c1Cl [II-002, 4-chloro-N-(cyclohexylmethyl)-3-[(diphenylmethylene)amino]isothiazole-5-carboxamide]",5.65
2,"O=C(O)c1cc(N(Cc2ccccc2)Cc2ccccc2)ns1 [E-VIII-003, 3-(dibenzylamino)-1,2-thiazole-5-carboxylic acid]",3.35
3,"O=Cc1c(N(Cc2ccccc2)Cc2ccccc2)nsc1C(=O)O [E-VIII-006, 3-(dibenzylamino)-4-formyl-1,2-thiazole-5-carboxylic acid]",3.21
